From patent publication US10253039B2, “Inhibitors of bacterial DNA gyrase with efficacy against gram-negative bacteria” (priority 2014, dated 2019)
Values after ≈ are worked out from the molar mass of the structure shown.

Tests used:
Format in all cases: cell-based
[1] = tested on: Staphylococcus aureus subsp. aureus; assay: MIC, 20-strain panel; conditions: Staphylococcus aureus subsp. aureus, read-out: MIC
Outline: (§1)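 Each of the 20 strains is tested in LB at a 1:10000 dilution of a growing subculture. Compound is titrated 2-fold in three replicates; a DMSO column serves as vehicle control. After shaking incubation at 37° C. for 16-18 hours, MIC is taken as the lowest clear concentration.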

E. coli JW5503 (deltolC) = assay: MIC, 20-strain panel; conditions: Escherichia coli, E. coli JW5503 (deltolC)
Outline: as §1

[2] = tested on: Klebsiella pneumoniae subsp. pneumoniae; assay: MIC, 20-strain panel; conditions: Klebsiella pneumoniae subsp. pneumoniae
Outline: as §1

Streptococcus pyogenes = assay: MIC, 20-strain panel
Outline: as §1

E. coli MG1655 = assay: MIC, 20-strain panel; conditions: Escherichia coli, MG1655, E. coli MG1655; read-out: MIC
Outline: as §1

Streptococcus agalactiae = assay: MIC, 20-strain panel
Outline: as §1

[3] = tested on: Staphylococcus saprophyticus subsp. saprophyticus; assay: MIC, 20-strain panel
Outline: as §1

[4] = tested on: Salmonella enterica subsp. enterica typhimurium; assay: MIC, 20-strain panel; conditions: Salmonella enterica subsp. enterica Typhimurium
Outline: as §1

[5] = tested on: Staphylococcus epidermidis; assay: MIC, 20-strain panel
Outline: as §1

Shigella flexneri = assay: MIC, 20-strain panel
Outline: as §1

Edwardsiella tarda = assay: MIC, microdilution in 96-well plates
Outline: as §1

E. coli BW25113 = assay: MIC, microdilution in 96-well plates; conditions: Escherichia coli, BW25113, E. coli BW25113; read-out: MIC
Outline: as §1

Compound | MIC [1] | MIC (E. coli JW5503 (deltolC)) | MIC [2] | MIC (Streptococcus pyogenes) | MIC (E. coli MG1655) | MIC (Streptococcus agalactiae) | MIC [3] | MIC [4] | MIC [5] | MIC (Shigella flexneri) | MIC (Edwardsiella tarda) | MIC (E. coli BW25113)
CC(=O)c1cc(S(=O)(=O)N[C@@H]2CCN(Cc3ccc(OC4CC4)cc3)C2)ccc1C [Compound 133] | > 8 µg/mL | > 8 µg/mL | > 8 µg/mL | > 8 µg/mL | > 8 µg/mL | > 8 µg/mL | > 8 µg/mL | > 8 µg/mL | > 8 µg/mL | > 8 µg/mL | > 8 µg/mL | > 8 µg/mL
CC(=O)c1cccc(S(=O)(=O)N[C@@H]2CCN(Cc3ccc(OC4CC4)cc3)C2)c1 [Compound 134] | > 8 µg/mL | 4 µg/mL (≈ 9.65 µM) | > 8 µg/mL | > 8 µg/mL | > 8 µg/mL | > 8 µg/mL | > 8 µg/mL | ~8 µg/mL (≈ 19.3 µM) | > 8 µg/mL | > 8 µg/mL | > 8 µg/mL | > 8 µg/mL
CC(C)Oc1ccc(CN2CC[C@@H](NS(=O)(=O)c3cc(C(F)(F)F)cc(C(F)(F)F)c3)C2)cc1 [Compound 135] | > 8 µg/mL | 8 µg/mL (≈ 15.7 µM) | > 8 µg/mL | > 8 µg/mL | > 8 µg/mL | > 8 µg/mL | > 8 µg/mL | > 8 µg/mL | > 8 µg/mL | > 8 µg/mL | > 8 µg/mL | > 8 µg/mL
CC(C)Oc1ccc(CN2CC[C@@H](NS(=O)(=O)c3ncc[nH]3)C2)cc1 [Compound 136] | > 8 µg/mL | ~8 µg/mL (≈ 21.9 µM) | > 8 µg/mL | > 8 µg/mL | > 8 µg/mL | > 8 µg/mL | > 8 µg/mL | > 8 µg/mL | > 8 µg/mL | > 8 µg/mL | > 8 µg/mL | > 8 µg/mL
Cc1ccncc1S(=O)(=O)N[C@@H]1CCN(Cc2ccc(-c3ccccc3)cc2)C1 [Compound 137] | > 8 µg/mL | 2 µg/mL (≈ 4.91 µM) | > 8 µg/mL | > 8 µg/mL | > 8 µg/mL | > 8 µg/mL | > 8 µg/mL | > 8 µg/mL | > 8 µg/mL | > 8 µg/mL | > 8 µg/mL | > 8 µg/mL
CC(C)Oc1ccc(CN2CC[C@@H](NS(=O)(=O)c3ccc(C#N)nc3)C2)cc1 [Compound 138] | > 8 µg/mL | > 8 µg/mL | > 8 µg/mL | > 8 µg/mL | > 8 µg/mL | > 8 µg/mL | > 8 µg/mL | > 8 µg/mL | > 8 µg/mL | > 8 µg/mL | > 8 µg/mL | > 8 µg/mL
Cc1ccc(S(=O)(=O)N[C@@H]2CCN(Cc3ccc(OC(C)C)cc3)C2)cn1 [Compound 139] | > 8 µg/mL | > 8 µg/mL | > 8 µg/mL | > 8 µg/mL | > 8 µg/mL | > 8 µg/mL | > 8 µg/mL | > 8 µg/mL | > 8 µg/mL | > 8 µg/mL | > 8 µg/mL | > 8 µg/mL
CC(C)Oc1ccc(CN2CC[C@@H](NS(=O)(=O)c3cc(C(F)(F)F)ccc3Cl)C2)cc1 [Compound 140] | > 8 µg/mL | < 0.0625 µg/mL | > 8 µg/mL | > 8 µg/mL | > 8 µg/mL | > 8 µg/mL | > 8 µg/mL | 4 µg/mL (≈ 8.39 µM) | > 8 µg/mL | > 8 µg/mL | > 8 µg/mL | > 8 µg/mL
O=S(=O)(N[C@@H]1CCN(Cc2ccc(-c3ccccc3)cc2)C1)c1ccc(Cl)cn1 [Compound 141] | > 8 µg/mL | ~8 µg/mL (≈ 18.7 µM) | > 8 µg/mL | > 8 µg/mL | > 8 µg/mL | > 8 µg/mL | > 8 µg/mL | > 8 µg/mL | > 8 µg/mL | > 8 µg/mL | > 8 µg/mL | > 8 µg/mL
CS(=O)(=O)c1ccc(Cl)c(S(=O)(=O)N[C@@H]2CCN(Cc3ccc(-c4ccccc4)cc3)C2)c1 [Compound 142] | > 8 µg/mL | 2 µg/mL (≈ 3.96 µM) | > 8 µg/mL | > 8 µg/mL | > 8 µg/mL | > 8 µg/mL | > 8 µg/mL | > 8 µg/mL | > 8 µg/mL | > 8 µg/mL | > 8 µg/mL | > 8 µg/mL
Cc1c(CN2CC[C@@H](NS(=O)(=O)c3cccc(OC(F)(F)F)c3)C2)cnn1-c1ccccc1 [Compound 144] | > 8 µg/mL | 8 µg/mL (≈ 16.6 µM) | > 8 µg/mL | > 8 µg/mL | > 8 µg/mL | > 8 µg/mL | > 8 µg/mL | > 8 µg/mL | > 8 µg/mL | > 8 µg/mL | > 8 µg/mL | > 8 µg/mL
N#Cc1cccc(S(=O)(=O)N[C@@H]2CCN(Cc3ccc(-n4cccn4)cc3)C2)c1 [Compound 145] | > 8 µg/mL | 8 µg/mL (≈ 19.6 µM) | > 8 µg/mL | > 8 µg/mL | > 8 µg/mL | > 8 µg/mL | > 8 µg/mL | > 8 µg/mL | > 8 µg/mL | > 8 µg/mL | > 8 µg/mL | > 8 µg/mL
O=S(=O)(N[C@@H]1CCN(Cc2ccc(-c3ccccc3)cc2)C1)c1cccnc1 [Compound 146] | > 8 µg/mL | 8 µg/mL (≈ 20.3 µM) | > 8 µg/mL | > 8 µg/mL | > 8 µg/mL | > 8 µg/mL | > 8 µg/mL | > 8 µg/mL | > 8 µg/mL | > 8 µg/mL | > 8 µg/mL | > 8 µg/mL
O=S(=O)(N[C@@H]1CCN(Cc2ccc(-c3ccccc3)cc2)C1)c1cncc(F)c1 [Compound 147] | > 8 µg/mL | 8 µg/mL (≈ 19.4 µM) | > 8 µg/mL | > 8 µg/mL | > 8 µg/mL | > 8 µg/mL | > 8 µg/mL | > 8 µg/mL | > 8 µg/mL | > 8 µg/mL | > 8 µg/mL | > 8 µg/mL
CC(C)Oc1ccc(CN2CC[C@@H](NS(=O)(=O)c3cc(S(C)(=O)=O)ccc3Cl)C2)cc1 [Compound 148] | > 8 µg/mL | 8 µg/mL (≈ 16.4 µM) | > 8 µg/mL | > 8 µg/mL | > 8 µg/mL | > 8 µg/mL | > 8 µg/mL | > 8 µg/mL | > 8 µg/mL | > 8 µg/mL | > 8 µg/mL | > 8 µg/mL
CC(C)Oc1ccc(CN2CC[C@@H](NS(=O)(=O)c3ccc(Cl)cn3)C2)cc1 [Compound 149] | > 8 µg/mL | > 8 µg/mL | > 8 µg/mL | > 8 µg/mL | > 8 µg/mL | > 8 µg/mL | > 8 µg/mL | > 8 µg/mL | > 8 µg/mL | > 8 µg/mL | > 8 µg/mL | > 8 µg/mL
CC(C)Oc1ccc(CN2CC[C@@H](NS(=O)(=O)c3cncc(F)c3)C2)cc1 [Compound 150] | > 8 µg/mL | > 8 µg/mL | > 8 µg/mL | > 8 µg/mL | > 8 µg/mL | > 8 µg/mL | > 8 µg/mL | > 8 µg/mL | > 8 µg/mL | > 8 µg/mL | > 8 µg/mL | > 8 µg/mL
CS(=O)(=O)c1ccc(Cl)c(S(=O)(=O)N[C@@H]2CCN(Cc3ccc(OC4CC4)cc3)C2)c1 [Compound 151] | > 8 µg/mL | ~8 µg/mL (≈ 16.5 µM) | > 8 µg/mL | > 8 µg/mL | > 8 µg/mL | > 8 µg/mL | > 8 µg/mL | > 8 µg/mL | > 8 µg/mL | > 8 µg/mL | > 8 µg/mL | > 8 µg/mL
